Key:
[1] = Body weight after 14-day intravaginal DHEA suppository; format: in vivo, rat; settings: OVX rats, 14 days
Text: (§1) The animals were housed individually and were allowed free access to water and rodent food (Lab Diet 5002, Ralston Purina, St-Louis, Mo.).
(§2) The insertion into the vagina of one suppository began on day 5 of the study and was continued once daily until day 18 of the study, for a total of 14 days of treatment. The suppository was gently placed in the vaginal opening and then delicately pushed about 2-3 mm inside the vagina with the help of a small, smooth glass stick, disinfected in 70% alcohol and dried between each animal.

rat vagina [2] = experiment: Vaginal weight after 36 weeks of treatment; format: in vivo; settings: OVX rats, 36 wk, mean±SEM; OVX 101±5, intact 205±11
Text: (§3) Animals from the intact and OVX control groups received the vehicle alone.
(§4) Twenty-four hours after the last dosing, overnight fasted animals were sacrificed under isoflurane anesthesia by exsanguination at the abdominal aorta (9 animals per group) or by intracardiac perfusion with 10% neutral buffered formalin (5 animals per group). Vaginae from non-perfused animals were collected and weighed, while the vaginae collected from perfused animals were marked with black ink on the ventral side, and then trimmed as described below.
(§5) Data are presented as means±SEM of 8-9 animals per group for vaginal weight or 5 animals per group for vaginal layer thickness determinations. Statistical significance was determined according to the multiple-range test of Duncan-Kramer (Kramer, 1956, Biometrics, 12: 307-310).

ERα = experiment: Immunohistochemistry of ERα in fifth vaginal segment; format: in vivo, rat; settings: OVX rats, 36 wk
Method: as §3
Immunostaining was performed using Zymed SP kits (San Francisco, Calif.). Paraffin sections (4 μm) were deparaffinized in toluene and rehydrated through ethanol. Endogenous peroxidase activity was eliminated by preincubation with 3% H2O2 in methanol for 30 min. A microwave retrieval technique using citrate buffer (Tacha and Chen, 1994) was applied. After cooling the slides, non-specific binding was blocked using 10% goat serum for 20 min. Sections were then incubated for 1.5 h at room temperature with ERα (AB-1, Calbiochem, California), AR (N-20, Santa Cruz Biotechnology, California) or PR (Ab-4, NeoMarkers, California) antibodies, at 1:200, 1:250 and 1:250 respectively. After washing in PBS buffer, sections were incubated with biotinylated anti-rabbit secondary antibody for 10 min and thereafter with streptavidin-peroxidase for another 10 min. Diaminobenzidine was used as the chromogen to visualize the biotin/streptavidin-peroxidase complex, under microscope monitoring. Counterstaining was performed using #2 Gill's hematoxylin for 30 sec. For controls, immunoabsorption with an excess of the peptide used to raise the antibody, or substitution with non immune rabbit IgG, was performed.

rat vagina [3] = settings: ovariectomized rat, DHEA 30 mg twice daily on dorsal skin, one, three or six months; cited from earlier work
[4] = DHEA blood levels after topical DHEA (Example 1); format: in vivo, rat; settings: DHEA 80 mg/kg topically on dorsal skin, rats
Text: as §3

rat vagina [5] = experiment: Intravaginal DHEA suppository: vaginal epithelium morphology in OVX rats (Example 3); format: in vivo; settings: 14 days
Text: as §1, §2
Vagina—including the urethra—and uterus were collected, and then trimmed as described below. For further analysis, two pieces of inguinal mammary gland were sampled, as well as a square piece of about 2 X 2 cm of shaved dorsal skin, the latter being put and gently flattened on a piece of carton.
Any other lipophilic base such as Fattibase, Wecobee, cocoa butter, theobroma oil or other combinations of Whitepsol bases could also be used. […] The proper amount of suppository base pellets to weight in order to obtain the final volume needed was calculated based on the previously measured density of the suppository base, which was 47.5 mg per 50 μl. The suppository base was put in a small beaker, melted in microwave at power 50% for about 3 min and 30 sec and then transferred on a heating plate, which was adjusted at the lowest power in order to keep the suppository base at a temperature of 50±3° C. […] These moulds were made from microcentrifuge tubes, each of them previously calibrated with 50 μl of water and cut at the level of the line drawn at the water surface. After 30 min of cooling at room temperature, the suppositories were put at 4° C. for another 30 min. Finally, the excess of base was trimmed with a razor blade and the suppositories were removed from their moulds and stored in closed glass bottles at 4° C. until use. They were allowed to reach room temperature before being applied to the animals.
The organs were immersed in 10% neutral buffered formalin immediately after resection. Each vagina and uterus was divided into 8 equal cross-segments and 4 cross-segments including two from the cervix and two from each of the two proximal and distal horns, respectively. The segments were then routinely processed and embedded all together in the same paraffin block.
Segment 6 represented the deeper vaginal mucosa and is separated from the uterine cervix by only one segment.

rat vagina [6] = experiment: Histological evaluation of epithelium, lamina propria and muscularis in the seven rat vaginal segments; format: in vivo; settings: OVX rats, 36 wk; for epithelium morphology: Acolbifene 2.5, Premarin 0.5 mg/kg oral, DHEA 80 mg/kg dorsal skin
Text: as §1, §3, §4
(§6) The entire vagina of each perfused animal was post-fixed in 10% neutral buffered formalin.
The degree of compactness of collagen fibers in the vagina was categorized as low, moderate and high (FIGS. 6A-6C, respectively), as observed in the area proximal to the epithelium. <<Low>> and <<moderate compactness>> were associated with the presence of coarse collagen fibers loosely or less loosely aggregated together, respectively, while <<high compactness>> was the term used to describe tightly packed fine collagen fibers, displaying a smooth, textured appearance. In all the animals, there were relatively few fibrocytes in proportion to the amount of collagen, and they appeared predominantly flattened and shrunken.

rat vagina [7] = experiment: Histomorphometry: thickness of vaginal layers at the fifth segment; format: in vivo; settings: OVX rats, 36 wk
Text: as §3, §4, §6
Measurements of the different vaginal layers were performed on the fifth segment (FIG. 1), which is approximately halfway between the middle region and the portio vaginalis uteri (segment 7). […] Images were captured with a DC-330 3CCD color camera (Dage-MTI, Michigan City, Ind., USA) and quantified using Image-Pro Plus 3.0 software (Media Cybernetics, Silver Spring, Md., USA). Thus, using a ×5 objective (Leica Microsystems, Willowdale, Ont., Canada), 3 to 4 thickness measurements per layer were obtained from representative areas of the epithelium and muscularis, and for the three vaginal layers together. The total vaginal thickness, the thickness of the epithelium and the thickness of the muscularis were thus measured. The thickness of the lamina propria was obtained by subtracting the thickness of the epithelium and muscularis from total vaginal thickness.
as §5

Which results are given for `C[C@]12CC[C@H](O)CC1=CC[C@@H]1[C@@H]2CC[C@]2(C)C(=O)CC[C@@H]12` [DHEA, dehydroepiandrosterone]?
body weight compared with placebo group ([1]; DHEA 0.33 mg suppository intravaginal): slightly decreased; body weight compared with placebo group ([1]; DHEA 0.66 mg suppository intravaginal): slightly decreased; decrease of body weight compared with placebo group ([1]; DHEA 1 mg suppository intravaginal): more pronounced; vaginal weight (rat vagina [2]): 171 ± 12 mg; ERα: labeling intensity (ERα; epithelium): ++; ERα: semi-quantitative evaluation of labeled nuclei (ERα; epithelium): 2; ERα: labeling intensity (ERα; lamina propria): +++; ERα: semi-quantitative evaluation of labeled nuclei (ERα; lamina propria): 2; ERα: labeling intensity (ERα; muscularis): +++; ERα: semi-quantitative evaluation of labeled nuclei (ERα; muscularis): 3; histopathologic examination of the vagina (rat vagina [3]): reversal of vaginal mucosal atrophy; DHEA blood levels [4]: 70 to 100 nmol/L; vaginal epithelium thickness (rat vagina [5]; DHEA 0.33 mg/suppository intravaginal, segment 6): 2-5 cell layers; animals displaying mild inflammation (rat vagina [5]; DHEA 0.33 mg/suppository, unevenly distributed over the whole vagina): four; animals displaying mild inflammation (rat vagina [5]; DHEA 0.66 mg/suppository, three external segments): two; animals displaying mild inflammation (rat vagina [5]; DHEA 1.00 mg/suppository, four external segments): four; reversal of the OVX-induced epithelial atrophy (rat vagina [6]; at the doses used): partially reversed; layers of mucous cells in the vaginal epithelium (rat vagina [6]; segment 5): 3-5 layers; epithelium morphology (rat vagina [6]; segment 1): KS-LHM; epithelium morphology (rat vagina [6]; segment 2): LHM; epithelium morphology (rat vagina [6]; segment 3): LHM; epithelium morphology (rat vagina [6]; segment 4): LHM; epithelium morphology (rat vagina [6]; segment 5): LHM; epithelium morphology (rat vagina [6]; segment 6): LHM-SCM; epithelium morphology (rat vagina [6]; segment 7): LHM-SCM; total vaginal thickness lower than that of the Premarin alone-treated group (rat vagina [7]; fifth segment): about 25%; muscularis thickness (rat vagina [7]; fifth segment, mean±SEM): 50±2 μm; thickness of the vaginal epithelium (rat vagina [7]; fifth segment, mean±SEM): 38±4 μm; total vaginal wall thickness (rat vagina [7]; fifth segment, mean±SEM, OVX 128±3, intact 262±39): 184±21 μm; lamina propria thickness (rat vagina [7]; fifth segment, mean±SEM, total minus epithelium and muscularis, OVX 76±2, intact 135±28): 96±20 μm; reversal of the OVX-induced decrease of the vaginal muscular layer (rat vagina [7]; 46% decrease after OVX): 41%; reversal of the OVX-induced decrease in total vaginal wall thickness (rat vagina [7]; 50% decrease after OVX): 42%
